For assay [1], the system named is pre-activated CD4 T cells and Raji cells. Kind of assay: Raji CD4 T Cell IL2 Assay. It is filed as cell-based.
The next assay addresses human DGKα (Homo sapiens (Human), UniProt P23743). The experiment in a line: biochemical. The settings on record: detergent/lipid micelle substrate; read-out: DGKα IC50. In a few lines: (§1)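 Full-length human DGKζ (and DGKα), C-terminal His-tagged, Sf9-expressed, with phosphatidylserine/DAG micelles in 50 mM octyl glucoside; buffer 50 mM MOPS pH 7.5, 100 mM NaCl, 10 mM MgCl2, 1 μM CaCl2, 1 mM DTT.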

In another assay the target is human DGKζ (Homo sapiens (Human), UniProt Q13574). The experiment in a line: DGKζ assay (detergent/lipid micelle substrate). It is filed as biochemical. Particulars: detergent/lipid micelle substrate; read-out: DGKζ IC50. The gist of the method:
as §1

Like-named read-outs stand apart in the source and are kept apart here.

This note sets out measurements from patent US11866430B2, “Naphthyridinone compounds useful as T cell activators” (priority 2018, dated 2024).

Chain of human DGKα (P23743 other isoform, or with tags, fused parts or gaps): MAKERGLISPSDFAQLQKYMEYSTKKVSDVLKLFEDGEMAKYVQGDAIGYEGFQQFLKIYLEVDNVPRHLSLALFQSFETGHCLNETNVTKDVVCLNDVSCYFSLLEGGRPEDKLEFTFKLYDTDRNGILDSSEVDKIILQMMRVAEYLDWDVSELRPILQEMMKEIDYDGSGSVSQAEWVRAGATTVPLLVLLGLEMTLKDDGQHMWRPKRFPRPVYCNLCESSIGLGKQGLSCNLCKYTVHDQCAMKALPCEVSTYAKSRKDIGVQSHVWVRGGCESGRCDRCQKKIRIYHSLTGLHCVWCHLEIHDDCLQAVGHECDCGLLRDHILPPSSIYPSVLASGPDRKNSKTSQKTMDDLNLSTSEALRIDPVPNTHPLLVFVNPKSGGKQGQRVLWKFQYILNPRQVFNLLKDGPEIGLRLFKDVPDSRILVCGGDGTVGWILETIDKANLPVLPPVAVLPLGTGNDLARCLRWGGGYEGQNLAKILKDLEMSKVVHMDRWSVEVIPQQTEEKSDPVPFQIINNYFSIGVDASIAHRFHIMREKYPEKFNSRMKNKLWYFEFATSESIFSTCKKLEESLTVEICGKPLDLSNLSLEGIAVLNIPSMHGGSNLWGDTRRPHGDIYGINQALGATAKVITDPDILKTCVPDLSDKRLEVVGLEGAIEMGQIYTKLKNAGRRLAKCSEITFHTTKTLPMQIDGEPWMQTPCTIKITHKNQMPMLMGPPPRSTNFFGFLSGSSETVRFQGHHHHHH
Chain of human DGKζ (Q13574 other isoform, or with tags, fused parts or gaps): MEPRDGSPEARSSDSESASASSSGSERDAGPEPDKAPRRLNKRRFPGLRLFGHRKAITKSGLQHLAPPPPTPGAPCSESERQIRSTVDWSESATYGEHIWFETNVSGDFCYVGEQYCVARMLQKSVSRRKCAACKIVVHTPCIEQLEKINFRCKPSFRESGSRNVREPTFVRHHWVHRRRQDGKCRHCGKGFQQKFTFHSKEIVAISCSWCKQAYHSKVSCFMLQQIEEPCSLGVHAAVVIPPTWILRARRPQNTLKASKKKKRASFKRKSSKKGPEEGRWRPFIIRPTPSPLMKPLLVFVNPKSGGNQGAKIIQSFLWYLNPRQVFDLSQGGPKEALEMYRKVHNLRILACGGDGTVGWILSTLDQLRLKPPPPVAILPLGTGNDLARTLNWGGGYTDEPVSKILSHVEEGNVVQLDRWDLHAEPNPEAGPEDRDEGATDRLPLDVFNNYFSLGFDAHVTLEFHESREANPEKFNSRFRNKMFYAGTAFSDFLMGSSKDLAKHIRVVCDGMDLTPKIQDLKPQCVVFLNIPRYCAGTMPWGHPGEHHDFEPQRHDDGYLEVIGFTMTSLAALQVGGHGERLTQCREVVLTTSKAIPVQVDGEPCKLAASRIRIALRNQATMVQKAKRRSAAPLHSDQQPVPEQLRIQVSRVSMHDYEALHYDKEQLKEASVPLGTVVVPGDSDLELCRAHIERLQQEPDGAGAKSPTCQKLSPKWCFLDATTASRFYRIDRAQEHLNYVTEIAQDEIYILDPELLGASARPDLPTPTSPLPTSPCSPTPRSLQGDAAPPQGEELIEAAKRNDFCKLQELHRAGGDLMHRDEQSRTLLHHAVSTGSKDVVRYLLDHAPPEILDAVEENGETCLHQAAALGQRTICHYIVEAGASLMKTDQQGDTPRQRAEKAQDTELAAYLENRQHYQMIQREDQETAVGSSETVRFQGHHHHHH

As to `Cn1c(=O)c(C#N)c(N2CCN(Cc3cc(Cl)ccc3O)CC2)c2nc(Cl)ccc21` [Example 370, 6-chloro-4-{4-[(5-chloro-2-hydroxyphenyl)methyl]piperazin-1-yl}-1-methyl-2-oxo-1,2-dihydro-1,5-naphthyridine-3-carbonitrile], the IC50 in assay [1] (Homo sapiens, Raji) was greater than 100000 nM; on human DGKα, 170 nM; on human DGKζ, greater than 240000 nM.
As to `CCc1ccc2c(n1)c(N1CCN(C(c3ccccc3)c3ccccc3)CC1)c(C#N)c(=O)n2C` [Example 202, 4-(4-benzhydrylpiperazin-1-yl)-6-ethyl-1-methy-2-oxo-1,2-dihydro-1,5-naphthyridine-3-carbonitrile], the IC50 amounted to 400 nM in assay [1] (Homo sapiens, Raji); 31000 nM on human DGKα; 12000 nM on human DGKζ.
Turning to `Cc1ccc2c(n1)c(N1CCN(C(c3ccc(F)cc3)c3ccc(F)cc3)CC1)c(C(F)(F)F)c(=O)n2C` [Example 232, 4-(4-(bis(4-fluorophenyl)methyl)piperazin-1-yl)-1,6-dimethyl-3-(trifluoromethyl)-1,5-naphthyridin-2(1H)-one], the IC50 in assay [1] (Homo sapiens, Raji) is 1100 nM; at human DGKα it was 150000 nM; at human DGKζ, greater than 240000 nM.
Take `COCCOCCCn1c(=O)c([N+](=O)[O-])c(N2CCN(C(c3ccccc3)c3ccccc3)CC2)c2ncccc21` [Example 189, 4-(4-benzhydrylpiperazin-1-yl)-1-(3-(2-methoxyethoxy)propyl)-3-nitro-1,5-naphthyridin-2(1H)-one]: the concentration for half-maximal inhibition (IC50) in assay [1] (Homo sapiens, Raji) is 7300 nM; at human DGKα it was 130000 nM; at human DGKζ, greater than 240000 nM.
The corresponding values for `COc1cccc(CN2CCN(c3c(C#N)c(=O)n(C)c4ccc(C)nc34)CC2)c1O` [Example 352, 4-{4-[(2-hydroxy-3-methoxyphenyl)methyl]piperazin-1-yl}-1,6-dimethyl-2-oxo-1,2-dihydro-1,5-naphthyridine-3-carbonitrile] are 1600 nM, 700 nM and greater than 81000 nM.
As to `Cn1c(=O)c(C#N)c(N2CCN(Cc3cccc4cc[nH]c34)CC2)c2nc(Cl)ccc21` [Example 303, 6-chloro-4-{4-[_(1H-indol-7-yl)methyl]piperazin-1-yl}-1-methyl-2-oxo-1,2-dihydro-1,5-naphthyridine-3-carbonitrile], the IC50 in assay [1] (Homo sapiens, Raji) was 180 nM; at human DGKα, 900 nM; at human DGKζ it was greater than 240000 nM.
The corresponding values for `Cc1ccc(CN2CCN(c3c(C#N)c(=O)n(C)c4ccc(Cl)nc34)CC2)cc1F` [Example 289, 6-chloro-4-{4-[(3-fluoro-4-methylphenyl)methyl]piperazin-1-yl}-1-methyl-2-oxo-1,2-dihydro-1,5-naphthyridine-3-carbonitrile] are 110 nM, 250 nM and greater than 81000 nM.
As to `Cn1c(=O)c(C#N)c(N2CCN(Cc3ccc(F)c(O)c3)CC2)c2nc(Cl)ccc21` [Example 348, 6-chloro-4-{4-[(4-fluoro-3-hydroxyphenyl)methyl]piperazin-1-yl}-1-methyl-2-oxo-1,2-dihydro-1,5-naphthyridine-3-carbonitrile], the IC50 in assay [1] (Homo sapiens, Raji) was 1300 nM; on human DGKα it was 220 nM; at human DGKζ, 140000 nM.
`Cn1c(=O)c(C#N)c(N2CCN(CC(O)c3ccc(F)cc3)CC2)c2nc(Br)ccc21` (single isomer, unassigned) [Example 30, 6-bromo-4-{4-[2-(4-fluorophenyl)-2-hydroxyethyl]piperazin-1-yl}-1-methyl-2-oxo-1,2-dihydro-1,5-naphthyridine-3-carbonitrile]: the IC50 amounted to 1100 nM in assay [1], 1800 nM at human DGKα and 140000 nM at human DGKζ.
Consider `Cn1c(=O)c(C#N)c(N2CCN(Cc3cccc4cn[nH]c34)CC2)c2nc(Br)ccc21` [Example 333, 6-bromo-4-{4-[(1H-indazol-7-yl)methyl]piperazin-1-yl}-1-methyl-2-oxo-1,2-dihydro-1,5-naphthyridine-3-carbonitrile], for which the IC50 amounted to 540 nM in assay [1] (Homo sapiens, Raji); 5000 nM at human DGKα; 230000 nM at human DGKζ.
For `Cc1ccc(CN2CCN(c3c(C#N)c(=O)n(C)c4ccc(Cl)nc34)CC2)cc1O` [Example 328, 6-chloro-4-{4-[(3-hydroxy-4-methylphenyl)methyl]piperazin-1-yl}-1-methyl-2-oxo-1,2-dihydro-1,5-naphthyridine-3-carbonitrile], in that order: 440 nM, 1000 nM and 120000 nM.
Take `Cn1c(=O)c(C#N)c(N2CCN(Cc3ccc(C(F)(F)F)c(F)c3)CC2)c2nc(Cl)ccc21` [Example 375, 6-chloro-4-(4-{[3-fluoro-4-(trifluoromethyl)phenyl]methyl}piperazin-1-yl)-1-methyl-2-oxo-1,2-dihydro-1,5-naphthylidine-3-carbonitrile]: the IC50 in assay [1] (Homo sapiens, Raji) is greater than 100000 nM; on human DGKα, 1600 nM; on human DGKζ, greater than 240000 nM.
`Cn1c(=O)c(C#N)c(N2CCN(Cc3ccc(F)cc3F)CC2)c2nc(Cl)ccc21` [Example 350, 6-chloro-4-{4-[(2,4-difluorophenyl)methyl]piperazin-1-yl}-1-methyl-2-oxo-1,2-dihydro-1,5-naphthyridine-3-carbonitrile]: the IC50 in assay [1] (Homo sapiens, Raji) is 1500 nM; on human DGKα, 1200 nM; on human DGKζ, greater than 81000 nM.
In the case of `Cn1c(=O)c([N+](=O)[O-])c(N2CCN(C(c3ccc(F)cc3)c3ccccc3O)CC2)c2nc(C#N)ccc21` (single isomer, unassigned) [Example 98, 8-(4-((4-fluorophenyl)(2-hydroxyphenyl)methyl)piperazin-1-yl)-5-methyl-7-nitro-6-oxo-5,6-dihydro-1,5-naphthyridine-2-carbonitrile], the IC50 in assay [1] came to 130 nM; at human DGKα, 6700 nM; at human DGKζ it was 4400 nM.
In the case of `CCN(C)c1cccc(CN2CCN(c3c(C#N)c(=O)n(C)c4ccc(Cl)nc34)CC2)c1` [Example 199, 6-chloro-4-(4-(3-(ethyl(methyl)amino)benzyl)piperazin-1-yl)-1-methyl-2-oxo-1,2-dihydro-1,5-naphthyridine-3-carbonitrile], the IC50 in assay [1] (Homo sapiens, Raji) is 380 nM; at human DGKα, 480 nM; at human DGKζ, greater than 240000 nM.
Turning to `COc1ccccc1C(c1ccc(F)cc1)N1CCN(c2c(C#N)c(=O)n(CC3CC3)c3ccc(Br)nc23)CC1` (single isomer, unassigned) [Example 160, 6-bromo-1-(cyclopropylmethyl)-4-(4-((4-fluorophenyl)(2-methoxyphenyl)methyl)piperazin-1-yl)-2-oxo-1,2-dihydro-1,5-naphthyridine-3-carbonitrile], the IC50 in assay [1] amounted to 2900 nM; on human DGKα, 180000 nM; at human DGKζ, 160000 nM.
In the case of `Cn1c(=O)c(C#N)c(N2CCN(Cc3ccc(OC(F)(F)F)cc3O)CC2)c2nc(C#N)ccc21` [Example 265, 8-(4-{[2-hydroxy-4-(trifluoromethoxy)phenyl]methyl}piperazin-1-yl)-5-methyl-6-oxo-5,6-dihydro-1,5-naphthyridine-2,7-dicarbonitrile], the IC50 in assay [1] (Homo sapiens, Raji) is 39 nM; on human DGKα, 34 nM; at human DGKζ, 36000 nM.
